# Where a SMILES comes first, the peptide text is derived from it. Bridges are numbered along the chain shown (N, C = ends). [ ]: non-standard residue; d: D form. The star is where a group is joined. hPhe(3,5-F2-4-CF3) = N[C@@H](CCc1cc(F)c(C(F)(F)F)c(F)c1)C(=O)O; hPhe(3-Cl-4-CF3) = N[C@@H](CCc1ccc(C(F)(F)F)c(Cl)c1)C(=O)O; NPrPhe(4-CF3) = CCCN[C@@H](Cc1ccc(C(F)(F)F)cc1)C(=O)O; 3Oxa8azabicyclo(3.2.1)octane = C1CC2COCC1N2*; NMeGly(cPent) = CN[C@H](C(=O)O)C1CCCC1; NMeD = CN[C@@H](CC(=O)O)C(=O)O; NMeL = CN[C@@H](CC(C)C)C(=O)O; αMeS = C[C@](N)(CO)C(=O)O; Morpholide = C1CN(*)CCO1; NMeA = CN[C@@H](C)C(=O)O; Ac5c = NC1(C(=O)O)CCCC1; Aze = O=C(O)[C@@H]1CCN1; Sar = CNCC(=O)O
# Columns and labels:
# [1] = system: human lung cancer strain NCI-H441; assay type: cell-based
# In short: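 Proliferation was scored by […] measured after the reagent was added to cultures kept at 37°C in 5% carbon dioxide.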
# [2] = target: GDP-bound KRAS wild-type protein (Homo sapiens, UniProt P01116); assay: Binding to KRAS by surface plasmon resonance (SPR), dissociation constant KD
# Chain of GDP-bound KRAS wild-type protein (P01116 1-188 isoform P01116-2): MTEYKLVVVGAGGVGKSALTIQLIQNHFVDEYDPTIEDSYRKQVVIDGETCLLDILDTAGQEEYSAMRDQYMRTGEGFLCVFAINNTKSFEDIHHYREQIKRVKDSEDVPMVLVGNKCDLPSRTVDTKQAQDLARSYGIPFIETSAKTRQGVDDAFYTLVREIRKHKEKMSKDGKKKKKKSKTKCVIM
# In short: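 GDP-loaded biotinylated Avi-tag RAS proteins (E. coli-expressed) captured on a Biotin CAPture chip at ~100–300 RU; single-cycle kinetics at 30°C, 100 µL/min, 75 s injections of rising compound concentrations. HBS pH 7.4 running buffer with 1 mM DTT, 10 mM MgCl2, 10 µM GDP, 4% DMSO. KD from 1:1 binding fit.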
# HRAS wild-type protein = HRAS wild-type protein (Homo sapiens, UniProt P01112); assay: Binding to HRAS by surface plasmon resonance (SPR), KD and KD ratio to KRAS
# Chain of HRAS wild-type protein (P01112 whole entry): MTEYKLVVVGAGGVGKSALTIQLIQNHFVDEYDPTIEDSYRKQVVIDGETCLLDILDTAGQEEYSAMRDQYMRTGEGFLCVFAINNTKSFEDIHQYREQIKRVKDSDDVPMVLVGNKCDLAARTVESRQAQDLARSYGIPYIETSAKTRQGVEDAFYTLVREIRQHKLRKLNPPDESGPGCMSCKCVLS
# In short: (§1)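 Compound binding is evaluated by SPR single-cycle kinetics, with concentrations added intermittently from low to high for 75 s each. Target surfaces carry GDP-loaded biotinylated Avi-RAS at about 100–300 RU, regenerated after each cycle; temperature 30°C. A 1:1 binding model gives KD.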
# [3] = target: GDP-bound NRAS wild-type protein (Homo sapiens, UniProt P01111); assay: Binding to NRAS by surface plasmon resonance (SPR), KD and KD ratio to KRAS
# Chain of GDP-bound NRAS wild-type protein (P01111 whole entry): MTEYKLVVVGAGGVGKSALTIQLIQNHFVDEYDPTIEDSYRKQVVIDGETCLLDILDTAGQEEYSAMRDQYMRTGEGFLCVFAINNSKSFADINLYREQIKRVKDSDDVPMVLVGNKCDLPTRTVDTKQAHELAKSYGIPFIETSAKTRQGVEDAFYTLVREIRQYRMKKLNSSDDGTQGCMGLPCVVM
# In short: as §1
# [4] = ratio of KD for HRAS wild-type protein to KD for KRAS
# [5] = ratio of KD for GDP-bound NRAS wild-type protein to KD for KRAS
# [6] = Single Cycle Kinetics, 1:1 binding model
# [7] = ratio of KD value for HRAS wild-type protein to KD value for KRAS (SPR)
# [8] = ratio of KD value for GDP-bound NRAS wild-type protein to KD value for KRAS (SPR)
# [9] = ratio of the KD value with respect to HRAS wild-type protein to the KD value with respect to KRAS
# [10] = ratio of the KD value with respect to GDP-bound NRAS wild-type protein to the KD value with respect to KRAS
IC50 [1] [nM],Kd ([2]; 1:1 binding model) [nM],"Kd [2, 6] [nM]",Kd ([2]; Single Cycle Kinetics) [nM],SMILES,HRAS /KRAS (HRAS wild-type protein; [4]),"NRAS /KRAS [3, 5]",HRAS /KRAS (HRAS wild-type protein; [7]),"NRAS /KRAS [3, 8]",HRAS /KRAS (HRAS wild-type protein; [9]),"NRAS /KRAS [3, 10]"
2.5,0.077,–,–,CCCO[C@@H]1C[C@H]2C(=O)NC3(CC(C)(C)C3)C(=O)N(C)[C@@H](C3CCCC3)C(=O)N(C)[C@H](C(=O)N(C)CC)CC(=O)N(C)[C@H]3CCCc4ccc(cc4)C[C@@H](C(=O)N(C)CC(=O)N[C@@H](CCc4ccc(C(F)(F)F)c(OC)c4)C(=O)N2C1)N1CC/C=C\C[C@@H](C1=O)N(C)C(=O)CN(C)C(=O)[C@H]([C@@H](C)CC)NC3=O [PP3083],A (a compound having 10 or more and less than 20 is denoted as A),A (a compound having 10 or more and less than 20 is denoted as A),–,–,–,–
86.3,–,1.2,–,C=CC[C@@H]1NC(=O)[C@H](CC2CC2)N(C)C(=O)C[C@@H](C(=O)N(C)CC=C)N(C)C(=O)[C@H](C2CCCC2)N(C)C(=O)C2(CCC2)NC(=O)[C@@H]2C[C@@H](OCC)CN2C(=O)[C@H](CCc2cc(F)c(C(F)(F)F)c(F)c2)NC(=O)CN(C)C(=O)[C@H](Cc2ccc(C(F)(F)F)cc2)N2CC/C=C\C[C@@H](C2=O)N(C)C(=O)CN(C)C1=O [PP1557],–,–,A (a compound having 10 or more and less than 20 is denoted as A),A (a compound having 10 or more and less than 20 is denoted as A),–,–
76.6,0.87,–,–,CCO[C@@H]1C[C@H]2C(=O)NC3(CC(C)(C)C3)C(=O)N(C)[C@@H](C3CCCC3)C(=O)N(C)[C@H](C(=O)N(C)CC)CC(=O)N(C)[C@@H]([C@@H](C)OC)C(=O)N[C@@H]([C@@H](C)CC)C(=O)N(C3CC3)CC(=O)N(C)[C@H]3C/C=C\CCN(C3=O)[C@@H](Cc3ccc(C)cc3)C(=O)N(C)CC(=O)N[C@@H](CCc3ccc(C(F)(F)F)c(OC)c3)C(=O)N2C1 [PP3182],A (a compound having 10 or more and less than 20 is denoted as A),A (a compound having 10 or more and less than 20 is denoted as A),–,–,–,–
4.4,–,–,0.081,CCO[C@@H]1C[C@H]2C(=O)NC3(CCC3)C(=O)N(C)[C@@H](C3CCCC3)C(=O)N(C)[C@H](C(=O)N3CCOCC3)CC(=O)N(C)[C@@H](CC(C)C)C(=O)N[C@@H]([C@@H](C)CC)C(=O)N(C)CC(=O)N(C)[C@H]3C[C@H]4C[C@H]4CN(C3=O)[C@@H](Cc3ccc(C(F)(F)F)cc3)C(=O)N(C)CC(=O)N[C@@H](CCc3cc(F)c(C(F)(F)F)c(F)c3)C(=O)N2C1 [PP0829],C (A compound having a KD ratio of 0.1 or more and less than 3 is denoted as C),B (a compound having 3 or more and less than 10 is denoted as B),–,–,–,–
135,–,2.3,–,CCO[C@@H]1C[C@H]2C(=O)NC3(CCC3)C(=O)N(C)[C@@H](C3CCCC3)C(=O)N(C)[C@H](C)CC(=O)N(C)[C@@H](CC(C)C)C(=O)N[C@@H]([C@@H](C)CC)C(=O)N(C)CC(=O)N(C)[C@H]3C/C=C\CCN(C3=O)[C@@H](Cc3ccc(F)cc3C)C(=O)N(C)CC(=O)N[C@@H](CCc3cc(F)c(C(F)(F)F)c(F)c3)C(=O)N2C1 [PP1493],–,–,B (a compound having 3 or more and less than 10 is denoted as B),B (a compound having 3 or more and less than 10 is denoted as B),–,–
143,–,0.95,–,CCO[C@@H]1C[C@H]2C(=O)NC3(CCC3)C(=O)N(C)[C@@H](C(CC)CC)C(=O)N(C)[C@H](C(=O)N3CCOCC3)CC(=O)N(C)[C@@H](CC3CC3)C(=O)N[C@@H]([C@@H](C)CC)C(=O)N(C)CC(=O)N(C)[C@H]3C/C=C\CCN(C3=O)[C@@H](Cc3ccc(F)cc3)C(=O)N(C)CC(=O)N[C@@H](CCc3cc(F)c(C(F)(F)F)c(F)c3)C(=O)N2C1 [PP1527],–,–,A (a compound having 10 or more and less than 20 is denoted as A),A (a compound having 10 or more and less than 20 is denoted as A),–,–
64.7,–,0.14,–,CCC[C@H]1C(=O)N[C@@H]([C@@H](C)CC)C(=O)N(C)CC(=O)N(C)[C@H]2C/C=C\CCN(C2=O)[C@@H](Cc2ccc(C)cc2)C(=O)N(C)CC(=O)N[C@@H](CCc2ccc(C(F)(F)F)c(Cl)c2)C(=O)N2C[C@H](CC)C[C@H]2C(=O)NC2(CCC2)C(=O)N(C)[C@@H](C2CCCC2)C(=O)N(C)[C@H](C(=O)N(C)C)CC(=O)N1C [PP2237],–,–,–,–,A (a compound having 10 or more and less than 20 is denoted as A),A (a compound having 10 or more and less than 20 is denoted as A)
13.3,0.37,–,–,CCO[C@@H]1C[C@H]2C(=O)NC3(CC(C)(C)C3)C(=O)N(C)[C@@H](C3CCCC3)C(=O)N(C)[C@H](C(=O)N(C)CC)CC(=O)N(C)[C@@H]([C@@H](C)OC)C(=O)N[C@@H]([C@@H](C)CC)C(=O)N(C)CC(=O)N(C)[C@H]3C/C=C\CCN(C3=O)[C@@H](Cc3ccc(C)cc3)C(=O)N(C)CC(=O)N[C@@H](CCc3ccc(C(F)(F)F)c(Cl)c3)C(=O)N2C1 [PP3180],B (a compound having 3 or more and less than 10 is denoted as B),B (a compound having 3 or more and less than 10 is denoted as B),–,–,–,–
13,–,0.21,–,CC[C@H](C)[C@@H]1NC(=O)[C@H](CC2CC2)N(C)C(=O)C[C@@H](C(=O)N(C)C)N(C)C(=O)[C@H](C2CCCC2)N(C)C(=O)C2(CCC2)N(C)C(=O)[C@@H]2C[C@@H](C)CN2C(=O)[C@H](CCc2cc(F)c(C(F)(F)F)c(F)c2)NC(=O)CN(C)C(=O)[C@H](Cc2ccc(C)cc2)N2CC/C=C\C[C@@H](C2=O)N(C)C(=O)[C@@H]2CCCN2C1=O [PP1801],–,–,B (a compound having 3 or more and less than 10 is denoted as B),A (a compound having 10 or more and less than 20 is denoted as A),–,–
7.6,–,0.098,–,CC[C@H](C)[C@@H]1NC(=O)[C@H](CC2CC2)N(C)C(=O)C[C@@H](C(=O)N(C)C)N(C)C(=O)[C@H](C2CCCC2)N(C)C(=O)C2(CC(C)(C)C2)NC(=O)[C@@H]2C[C@@H](C)CN2C(=O)[C@H](CCc2ccc(C(F)(F)F)c(OC)c2)NC(=O)CN(C)C(=O)[C@H](Cc2ccc(C)cc2)N2CC/C=C\C[C@@H](C2=O)N(C)C(=O)CN(C)C1=O [PP1901],–,–,–,–,B (a compound having 3 or more and less than 10 is denoted as B),A (a compound having 10 or more and less than 20 is denoted as A)
341,–,3.4,–,CCO[C@@H]1C[C@H]2C(=O)NC3(CCC3)C(=O)N(C)[C@@H](C3CCCC3)C(=O)N(CC)[C@H](C(=O)N3CCOCC3)CC(=O)N(C)[C@@H](CC(C)C)C(=O)N[C@@H]([C@@H](C)CC)C(=O)N(C)CC(=O)N(C)[C@H]3CCCCCN(C3=O)[C@@H](Cc3ccc(C(F)(F)F)cc3)C(=O)N(C)CC(=O)N[C@@H](CCc3cc(F)c(C(F)(F)F)c(F)c3)C(=O)N2C1 [PP0638],–,–,–,–,B (a compound having 3 or more and less than 10 is denoted as B),B (a compound having 3 or more and less than 10 is denoted as B)
220,1.1,–,–,C#CC[C@H]1C(=O)N[C@@H]([C@@H](C)CC)C(=O)N(C)CC(=O)N(C)[C@H]2C/C=C\CCN(C2=O)[C@@H](Cc2ccc(C(F)(F)F)cc2)C(=O)N(C)CC(=O)N[C@@H](CCc2ccc(C(F)(F)F)c(OC)c2)C(=O)N2C[C@H](C)[C@H]2C(=O)NC2(CCC2)C(=O)N(C)[C@@H](C2CCCC2)C(=O)N(C)[C@H](C(=O)N2CCOCC2)CC(=O)N1C [PP3133],A (a compound having 10 or more and less than 20 is denoted as A),A (a compound having 10 or more and less than 20 is denoted as A),–,–,–,–
364,–,–,5.1,"CCCN1C(=O)CN(C)C(=O)[C@@H]2CCN2C(=O)[C@H]([C@@H](C)CC)NC(=O)[C@H](CC(C)C)N(C)C(=O)C[C@@H](C(=O)N2CCOCC2)N(C)C(=O)[C@H](C2CCCC2)N(C)C(=O)[C@](C)(COC)NC(=O)[C@@H]2CCCN2C(=O)[C@H](CCc2cc(F)c(C(F)(F)F)c(F)c2)NC(=O)CN(C)C(=O)[C@@H]1Cc1ccc(C(F)(F)F)cc1 [PP0779] ([NMeL]I[Aze][Sar][NPrPhe(4-CF3)][Sar][hPhe(3,5-F2-4-CF3)]P[αMeS](Me)[NMeGly(cPent)][NMeD]-Morpholide; lactam N-11)",B (a compound having 3 or more and less than 10 is denoted as B),B (a compound having 3 or more and less than 10 is denoted as B),–,–,–,–

SMILES,IC50 [1] [nM],Kd ([2]; 1:1 binding model) [nM],"Kd [2, 6] [nM]",Kd ([2]; Single Cycle Kinetics) [nM],HRAS /KRAS (HRAS wild-type protein; [4]),"NRAS /KRAS [3, 5]",HRAS /KRAS (HRAS wild-type protein; [7]),"NRAS /KRAS [3, 8]",HRAS /KRAS (HRAS wild-type protein; [9]),"NRAS /KRAS [3, 10]"
CCCN1C(=O)[C@@H]2CCN2C(=O)[C@H](C)N(C)C(=O)[C@H]([C@@H](C)CC)NC(=O)[C@H](CC(C)C)N(C)C(=O)C[C@@H](C(=O)N2C3CCC2COC3)N(C)C(=O)[C@H](C2CCCC2)N(C)C(=O)C2(CCCC2)NC(=O)[C@@H]2CCCN2C(=O)[C@H](CCc2ccc(C(F)(F)F)c(Cl)c2)NC(=O)CN(C)C(=O)[C@@H]1Cc1ccc(C(F)(F)F)cc1 [PP0182] ([NMeL]I[NMeA][Aze][NPrPhe(4-CF3)][Sar][hPhe(3-Cl-4-CF3)]P[Ac5c][NMeGly(cPent)][NMeD]-{3Oxa8azabicyclo(3.2.1)octane}; lactam N-11),6.2,0.88,–,–,B (a compound having 3 or more and less than 10 is denoted as B),C (A compound having a KD ratio of 0.1 or more and less than 3 is denoted as C),–,–,–,–
